Data as given in patent publication US20250051282A1, “COMPOUNDS FOR TREATING POLYQ-RELATED NEURODEGENERATIVE DISORDERS” (HANGZHOU JIJING PHARMACEUTICAL TECHNOLOGY LIMITED, priority 2021, published 2025).

What follows are molecules tested on ATXN1(60Q) (assay: Daoy-ATXN1(60Q)-mATXN1 MSD assay (CTG normalized)). Conditions: Daoy-Flag-ATXN1(60Q) stable cells, compound added Day 2, lysis Day 3, final DMSO 0.3%, read-out: Daoy-ATXN1(60Q)-mATXN1 MSD (CTG normalized) DC50.
Type: cell-based
Method: Protocol for MSD Assay: Daoy-ATXN1(600)-mATXN1 MSD (CTG normalized)
The Flag-ATXN1(60Q) gene is synthesized by Genescript and cloned into the pLVX-IRES-Puro vector (Takarabio, catalog No. 632183) using EcoRI/BamHI restriction enzyme sites. Lentivirus is made by transfecting HEK293T cells with pLVX-IRES-Puro-Flag-ATXN1(60Q) plasmids and packaging plasmids psPAX2 and pMD2.G at 4:3:1 ratio (8:6:[…], respectively) in 10 cm plates, and are harvested at 48 hours post transfection. Daoy cells (ATCC catalog No. HTB-186) seeded in T25 flasks are infected with the lentivirus in the presence of 8 µg/mL polybrene (Sigma, TR-1003-G) for 24 hours. 48 hours post infection, the cells are selected using 0.5 […] (Sigma, P8833) for more than 5 days until all cells in the uninfected group die. The expression of Flag-ATXN1(60Q) is verified by anti-Flag immunoblot using anti-Flag antibody (Sigma, F1804-200UG, M2).
As explained above, Daoy-Flag-ATXN1(60Q) cells are prepared as a stable cell line by infecting Daoy cells with lentivirus. The media for the cells is EMEM (ATTC, 30-2008) with 10% fetal bovin serum (FBS).
On Day 1, the Daoy-Flag-ATXN1(60Q) cells are seeded in a 96 well plate at a concentration of 1.2×10^4/well. On Day 2, the cells are treated with test compounds at test concentrations (compounds are serially diluted with DMSO to obtain test concentrations, such that final DMSO concentration is 0.3%). On Day 3, the cells are washed with 100 μL of phosphate-buffered saline (PBS) per well, and then 30 μL of radioimmuno-precipitation assay (RIPA) buffer (with protease and phosphatase inhibitor cocktail) is added to each well.
The well plate is then cooled on ice for 30 minutes in order to complete lysis, and MSD samples are prepared using 10 μL of Daoy-Flag-ATXN1-60Q lysate and 90 μL of RIPA buffer with gentle mixing. Each MSD sample has a total volume of 100 μL, and is used immediately or stored at −80° C.
A standard Meso Scale Discovery (MSD) plate is coated with anti-Flag (Sigma, F1804-200UG, M2) in PBS at 1:500 dilution ratio and 40 µL/well, and is incubated at 4° C. overnight with shaking at 600 rpm. Then, the MSD plate is washed 3 times with 150 µL/well of 1X TBST (tris-buffered saline (TBS) with Tween 20) buffer, and the MSD plate is blocked with 150 μL of blocking buffer [3% Blocker A in 1X TBST, (3 g Blocker A per 100 mL 1X TBST)] and shaken for 1 hour at 600 rpm at room temperature. Then, the MSD plate is washed three times with 150 μL/well of 1X TBST. Next, the diluted lysate samples (from Sample Preparation above) are added to the MSD plate at 25 μL/well, and the MSD plate is shaken at 600 rpm for 1 hour at room temperature. Then the MSD plate is washed 3 times with 150 μL/well of 1X TBST.
Detection antibody anti-Ataxin 1 (G-bio, ITA1916) (1:500), which is prepared in antibody detection buffer (1% Blocker A in 1X TBST), is then added to the MSD plate at 25 µL/well, and the MSD plate is shaken at 600 rpm for 1 hour at room temperature. The MSD plate is then washed three times with 150 μL/well of 1X TBST. Next, a secondary detection antibody, Goat anti-rabit (GAR) with SULFO-TAG (1:500), which is prepared in antibody detection buffer (1% Blocker A in 1X TBST), is added at 25 μL/well and the MSD plate is shaken at 600 rpm for 1 hour at room temperature. Then the MSD plate is washed 3 times with 150 μL/well of 1X TBST, and 2X MSD reading buffer is added at 150 μL/well (diluted from 4x MSD reading buffer with water). Finally, the signal from each well is measured on the MSD Meso QuickPle SQ120 Plate Reader. DC50 data is calculated using collaborate drug discovery (CDD) software (https://www.collaborativedrug.com/about).
For `Nc1ccc(/C(Nc2ccnnc2)=C2/C(=O)Nc3ccc(Br)cc32)cc1O` [Example 63, (Z)-3-((4-amino-3-hydroxyphenyl)(pyridazin-4-ylamino)methylene)-5-bromoindolin-2-one], the DC50 was < 10 µM. With `O=C1Nc2ccc(Br)cc2/C1=C(/Nc1ccnnc1)c1ccc2[nH]c(=O)oc2c1` [Example 64, (Z)-6-((5-bromo-2-oxoindolin-3-ylidene)(pyridazin-4-ylamino)methyl) benzo[d]oxazol-2(3H)-one] the DC50 was < 10 µM. In the case of `O=C1Nc2ccc(Br)cc2/C1=C(/Nc1cccnc1)c1cccc(O)c1` [Example 66, (Z)-5-bromo-3-((3-hydroxyphenyl) (pyridin-3-ylamino)methylene)indolin-2-one], the DC50 is reported as < 10 µM. In the case of `O=C1Nc2ccc(Br)cc2/C1=C(/Nc1cncnc1)c1cccc(O)c1` [Example 69, (Z)-5-bromo-3-((3-hydroxyphenyl) (pyrimidin-5-ylamino)methylene)indolin-2-one], the DC50 is reported as < 10 µM. With `O=C1Nc2ccc(Br)cc2/C1=C(/Nc1cn[nH]c1)c1cccc(O)c1` [Example 70, (Z)-3-(((1H-pyrazol-4-yl)amino)(3-hydroxyphenyl)methylene)-5-bromoindolin-2-one] the DC50 was < 10 µM. `Cn1cc(N/C(=C2\C(=O)Nc3ccc(Br)cc32)c2cccc(O)c2)cn1` [Example 71, (Z)-5-bromo-3-((3-hydroxyphenyl)((1-methyl-1H-pyrazol-4-yl)amino)methylene)indolin-2-one] was tested, and the DC50 was < 10 µM. With `O=C1Nc2ccc(Br)cc2/C1=C(/Nc1cnccn1)c1cccc(O)c1` [Example 72, (Z)-5-bromo-3-((3-hydroxyphenyl) (pyrazin-2-ylamino)methylene)indolin-2-one] the DC50 was < 10 µM. In the case of `O=C1Nc2ccc(Br)cc2/C1=C(/Nc1cccnn1)c1cccc(O)c1` [Example 73, (Z)-5-bromo-3-((3-hydroxyphenyl) (pyridazin-3-ylamino)methylene)indolin-2-one], the DC50 is reported as < 10 µM. With `O=C1Nc2ccc(Br)cc2/C1=C(/Nc1ccc(C(=O)O)cc1)c1cccc(O)c1` [Example 74, (Z)-4-(((5-bromo-2-oxoindolin-3-ylidene)(3-hydroxyphenyl)methyl)amino)benzoic acid] the DC50 was 10 to 30 µM. `N/C(=C1\C(=O)Nc2ccc(Br)cc21)c1cc(C(F)F)ccn1` [Example 75, (Z)-3-(amino(4-(difluoromethyl)pyridin-2-yl)methylene)-5-bromo indolin-2-one] was tested, and the DC50 was 10 to 30 µM. `N/C(=C1\C(=O)Nc2ccc(Br)cc21)c1cc2ccccc2o1` [Example 76, (Z)-3-(amino (benzofuran-2-yl)methylene)-5-bromoindolin-2-one] was tested, and the DC50 was < 10 µM. With `N/C(=C1\C(=O)Nc2ccc(Br)cc21)c1ccncc1` [Example 77, (Z)-3-(amino (pyridin-4-yl)methylene)-5-bromoindolin-2-one] the DC50 was < 10 µM. `N/C(=C1\C(=O)Nc2ccc(Br)cc21)c1ncccn1` [Example 78, (Z)-3-(amino (pyrimidin-2-yl)methylene)-5-bromoindolin-2-one] was tested, and the DC50 was > 30 µM. `NC(=C1C(=O)Nc2ccc(Br)cc21)C1COc2ccccc2O1` (stereo not shown) [Example 79, 3-(Amino(2,3-dihydrobenzo[b] [1,4]dioxin-2-yl)methylene)-5-bromoindolin-2-one] was tested, and the DC50 was > 30 µM. In the case of `N/C(=C1\C(=O)Nc2ccc(Br)cc21)c1cc(O)c(Br)cn1` [Example 83, (Z)-3-(amino(5-bromo-4-hydroxypyridin-2-yl)methylene)-5-bromoindolin-2-one], the DC50 is reported as > 30 µM. For `N/C(=C1\C(=O)Nc2ccc(Br)cc21)c1cncc(O)c1` [Example 84, (Z)-3-(amino(5-hydroxypyridin-3-yl)methylene)-5-bromoindolin-2-one], the DC50 was < 10 µM. `C/C(=C1\C(=O)Nc2ccc(Br)cc21)c1cccc(O)c1` [Example 85, (E)-5-bromo-3-(1-(3-hydroxyphenyl)ethylidene)indolin-2-one] showed a DC50 of 10 to 30 µM. `C/C(=C1\C(=O)Nc2ccc(Br)cc21)c1ccc2[nH]c(=O)oc2c1` [Example 88, (E)-6-(1-(5-bromo-2-oxoindolin-3-ylidene)ethyl)benzo[d]oxazol-2(3H)-one] was tested, and the DC50 was > 30 µM. `C/C(=C1\C(=O)Nc2ccc(Br)cc21)c1ccc(F)c(O)c1` [Example 92, (E)-5-bromo-3-(1-(4-fluoro-3-hydroxyphenyl)ethylidene) indolin-2-one] was tested, and the DC50 was < 10 µM. In the case of `CC(=C1C(=O)Nc2ccc(C(F)(F)F)cc21)c1cccc(O)c1` [Example 95, 3-(1-(3-Hydroxyphenyl)ethylidene)-5-(trifluoromethyl) indolin-2-one], the DC50 is reported as < 10 µM. `C/C(=C1\C(=O)Nc2ccc(Br)cc21)c1cc(O)c(O)c(Br)c1` [Example 98, 5-Bromo-3-(1-(3-bromo-4,5-dihydroxyphenyl)ethylidene)indolin-2-one] was tested, and the DC50 was > 30 µM. For `CCC/C(=C1\C(=O)Nc2ccc(Br)cc21)c1cccc(O)c1` [Example 100, (E)-5-bromo-3-(1-(3-hydroxyphenyl)butylidene)indolin-2-one], the DC50 was < 10 µM.
